Columns and labels:
[1] = Noncompartmental PK of rutin after oral administration of pure rutin or P. peruviana extract; assay type: in vivo, New Zealand White rabbits
Method: (§1) Twenty male New Zealand White rabbits were obtained from Sentagro E.A.T (Cachipay, Cundinamarca, Colombia), who certificated their origin and traceability. The animals were between 9 and 10 weeks old, weighing between 1.8 and 2.2 kg. They were allowed to acclimate for at least 5 days under constant temperature conditions (22 ± 1 °C), with light/dark cycles of 12 h, at the animal facility of the Department of Pharmacy of the Universidad Nacional de Colombia (UNAL), where the experiments were conducted. They were provided with water and food ad libitum until 12 h prior to the experiment, when they were fasted. The study protocol was approved by the ethics committee of the science faculty of the UNAL (Act 06, 2015, project 40831, 22 June 2015).
(§2) Rabbits were divided into four groups to receive either pure rutin or P. peruviana extract intravenously (i.v.) or orally (p.o.). The dose of rutin i.v. was set at 0.37 mg/kg, based on the highest quantity of the compound able to dissolve in 1 mL of the diluent used. The dose of extract i.v. was 100 mg/kg, a reference dose for animal experimentation in our group, which also allowed the solubilization of rutin in the extract within the administration volume. Oral rutin was administrated at a dose of 100 mg/kg, and oral extract was administrated at a dose of 500 mg/kg, which is an active dose from prior experiments. Based on the rutin content in the extract, the doses of extract used were equivalent to 1.48 mg/kg and 7.4 mg/kg of rutin for the i.v. and p.o. experiments, respectively.
(§3) For intravenous administration, solutions of rutin in sodium chloride solution (0.9% NaCl) were prepared at a concentration of 0.74 mg/mL, using DMSO (<0.1% of the final volume) to dissolve the compound. Meanwhile, the extract was directly dissolved in 0.9% NaCl at a concentration of 200 mg/mL. For oral administration, pure rutin and the extract were suspended in water near the time of the experiment to achieve concentrations in suspension of 200 and 1000 mg/mL, respectively. Vortexing and sonication were applied 3–4 times for 15 min each to all preparations. Each animal received 0.5 mL/kg of the treatment via the marginal ear vein (i.v.) or by oral gavage (p.o.).
(§4) Samples of blood (approximately 250 µL) were withdrawn from the marginal ear vein and collected in heparinized tubes at various time points. For experiments with i.v. administration, sampling was conducted at times 0, 0.083, 0.166, 0.333, 0.5, 0.75, 1, 1.5, 2, 3, 4, 6, 8, 12, and 24 h. For experiments with p.o. administration, sampling was performed at times 0, 0.083, 0.25, […], 0.75, 1, 2, 3, 4, 6, 8, 12, 24, and 48 h (Figure 1). The blood samples were then centrifuged at 3200× g and at 4 °C for 15 min to separate plasma, which was transferred to a new tube. The plasma was promptly acidified to pH 4 using 0.5 µL of 42.5% formic acid and then frozen at −80 °C until further analysis.
(§5) The quantification of analytes was carried out using a validated UHPLC-UV method on a Chromaster RS chromatograph (Hitachi, Tokyo, Japan). Briefly, plasma samples (100 µL) were supplemented with the internal standard, chrysin (1000 ng/mL), and divided into two tubes. One tube was immediately extracted and injected into the chromatographic system to quantify rutin. The plasma in the other tube first underwent a deconjugation reaction with 120 Fishman units of a mixture of the enzymes β-glucuronidase/arylsulfatase at pH 5.5 and 37 °C for 30 min. The product of the reaction, Quer, was also quantified, representing rutin metabolites Q3OG and Q3OS. The analytes in the plasma samples, rutin and Quer, were extracted using the protein precipitation method with twice the volume of methanol; proteins were then separated by centrifugation at 1200× g and 4 °C for 15 min, and the supernatant was used for instrumental analysis.
(§6) Concentrations–time data were tabulated and processed using MonolixSuite™ 2024R1 (Lixoft®, Paris, France). […]

[2] = Simple allometry prediction of human V and Cl of rutin; set-up: species or system humans
Excerpt: Individual pharmacokinetics parameters estimated by PopPK analysis in this study, along with those from a previous study conducted by the group in Wistar rats, were used to extrapolate V and Cl to humans using the simple allometry Equation (6):(6) Y=a×W^b, where Y is the PK parameter in humans, W is the human weight, typically set at 70 kg, and a and b are the coefficient and the exponent of scaling, respectively. These last two values are obtained from the relationship between the PK parameter and body weight across different species. Theoretically, b is fixed to 0.75 for Cl and 1.0 for Vd, although it can vary depending on the drug and population under study.

[3] = Population PK model of rutin after i.v. administration (two-compartment, first-order elimination); assay type: in vivo, New Zealand White rabbits
Method: PopPK analysis was performed using the Monolix® module of the MonolixSuite™. Two models were established, one for rutin after i.v. administration of the treatments, and one for Quer, produced by deconjugation of Q3OG and Q3OS, after p.o. administration of the treatments. Structural models with one or two compartments and first-order elimination were assessed, incorporating a double first-order absorption for p.o. experiments. An analysis of covariate was conducted, using the source of rutin as categorical covariate (pure compound or extract), which was incorporated into the model if statistically significant (p < 0.05 for Pearson’s and Wald tests with stochastic approximation). Correlations between random effects of the parameters were also examined and included in the model when significant (p < 0.05 for t-test). The final model, along with the residual error model, was chosen based on criteria including individual fit plots, Akaike’s information criteria (AIC) values, observation-versus-prediction plot analysis, precision of estimated parameters, and evaluation of residual distribution. The variability on fixed-effect model parameters was described by Equation (4):(4) Pi=Ppop+β+η(i,p), where Pi is the value of the individual PK parameter, Ppop is the value of the population PK parameter, β represents the variability due to the covariate extract if significant, and η is the individual deviation with respect to the population. Models were parametrized in micro-constants, i.e., elimination rate constant (k), distribution rate constant from compartment 1 to compartment 2 (k12), and distribution rate constant from compartment 2 to compartment 1 (k21). When necessary, Cl was calculated as follows: (5) Cl=k×V, where V is the volume of distribution of first compartment. The model was internally validated through the visual predictive check (VPC) with 1000 simulated data points. Validation of structural, variability, and covariate models was considered achieved if the observed percentiles remained within the corresponding prediction intervals estimated across all simulated data and computed with a level of 90%. In addition, the parameter uncertainty was assayed by bootstrap analysis using 1000 runs. The model was considered stable, robust, and accurate if the mean parameters of the model were close to those estimated via bootstrap and fell within the 95% confidence interval (CI 95%).

[4] = set-up: method as in PMID 32162346; details: low solubility and low permeability; cited from earlier work
[5] = set-up: method as in PMID 33921404; details: rutin; popPK, Wistar rats; cited from earlier work
[6] = Noncompartmental PK of rutin after intravenous administration of pure rutin or P. peruviana extract; assay type: in vivo, New Zealand White rabbits
Method: as §1, §2, §3, §4, §5, §6

[7] = male, New Zealand White, rabbit, plasma, po, rutin, pure rutin 100 mg/kg, extract equivalent to 7.4 mg/kg of rutin, NCA, mean ± SD, n = 5
[8] = male, New Zealand White, rabbit, po, rutin in plasma, pure rutin 100 mg/kg, extract equivalent to 7.4 mg/kg of rutin, NCA, mean ± SD, n = 5
[9] = rutin, p.o., pure rutin 100 mg/kg, extract equivalent to 7.4 mg/kg of rutin, NCA, mean ± SD, n = 5
[10] = male, New Zealand White, rabbit, plasma, iv, rutin, pure rutin 0.37 mg/kg, extract equivalent to 1.48 mg/kg of rutin, NCA, mean ± SD, n = 5
[11] = rutin, i.v., pure rutin 0.37 mg/kg, extract equivalent to 1.48 mg/kg of rutin, NCA, mean ± SD, n = 5

## C[C@@H]1O[C@@H](OC[C@H]2O[C@@H](Oc3c(-c4ccc(O)c(O)c4)oc4cc(O)cc(O)c4c3=O)[C@H](O)[C@@H](O)[C@@H]2O)[C@H](O)[C@H](O)[C@H]1O [Pure Rutin, quercetin-3-O-rutinoside]
[1]; male, New Zealand White, rabbit, plasma, po, p.o. vs i.v., pure rutin 100 mg/kg, extract equivalent to 7.4 mg/kg of rutin, read-out: F (absolute bioavailability of rutin)
  bioavailability: 0.6%
[1]; male, New Zealand White, rabbit, plasma, po, rutin, p.o., pure rutin 100 mg/kg, extract equivalent to 7.4 mg/kg of rutin, NCA, mean ± SD, n = 5, read-out: Vz/F
  Vd/F: 59.1 ± 11.4 L/kg
[1]; male, New Zealand White, rabbit, plasma, po, rutin, p.o., pure rutin 100 mg/kg, extract equivalent to 7.4 mg/kg of rutin, NCA, mean ± SD, n = 5, read-out: λz (converted)
  k el: 6.5e-05 s⁻¹
[1]; [7]
  CL/F: 226 mL/min/kg
  MRT: 11.8 ± 0.916 h
[1]; [8]
  AUC(0-inf): 7790 ± 2110 ng·h/mL
  Cmax: 1170 ± 371 ng/mL
  Tmax: 0.75 h
[1]; p.o., Cmax here for the extract
  time of second peak of rutin plasma concentration (double peaks): 4.0 h
[1]; p.o., Cmax here for the pure compound
  time of first peak of rutin plasma concentration (double peaks): 0.75 h
[1]; [9]
  AUC0–∞/dose: 0.078 ± 0.021 h/L/kg
  Cmax/dose: 0.012 ± 0.004 L⁻¹ kg⁻¹
[2]; 70 kg, b exponent from the data
  V, human parameter (experimental b): 1.410 L
[2]; 70 kg, theoretical b 0.75
  Cl, human parameter (theoretical b): 2.323 L/h
[2]; 70 kg, theoretical b 1.0
  V, human parameter (theoretical b): 3.988 L
[2]; Y = a × W^b, rats and rabbits
  Cl, a coefficient of allometric scaling: 0.096
  Cl, b exponent of allometric scaling: 0.9
  V, a coefficient of allometric scaling: 0.057
  V, b exponent of allometric scaling: 0.8
[2]; human, 70 kg, b exponent from the data, read-out: Cl, human parameter (experimental b) (converted)
  clearance: 89.8 mL/min
[3]; New Zealand White, rabbit, plasma, intravenous, 0.37 mg/kg, popPK individual parameters, Cl = k × V, per animal, read-out: Cl, rabbit parameter (converted)
  clearance: 3.13 mL/min
[3]; i.v., popPK
  k12 (distribution rate constant compartment 1 to 2), population value: 3.666 h⁻¹
[3]; i.v., popPK, no extract covariate
  k21 (distribution rate constant compartment 2 to 1), population value: 3.777 h⁻¹
[3]; male, New Zealand White, rabbit, plasma, iv, popPK, read-out: V (volume of distribution of first compartment), population value
  Vd: 0.048 L/kg
[3]; male, New Zealand White, rabbit, plasma, iv, popPK, read-out: k (first-order elimination rate constant), population value (converted)
  k el: 0.000534 s⁻¹
[3]; popPK individual parameters, per animal
  V, rabbit parameter: 0.096 L
[4]
  Biopharmaceutical Classification System class: Class IV
[5]
  Cl, rat parameter: 0.031 L/h
  V, rat parameter: 0.024 L
[6]; i.v.
  time post-dosage up to which rutin was quantified: up to 6 h
[6]; i.v., mean ± SEM
  rutin plasma level, upper end of quantified range: 4960 ± 340 ng/mL
[6]; male, New Zealand White, rabbit, iv, rutin in plasma, pure rutin 0.37 mg/kg, extract equivalent to 1.48 mg/kg of rutin, NCA, mean ± SD, n = 5
  AUC(0-inf): 4740 ± 814 ng·h/mL
[6]; male, New Zealand White, rabbit, plasma, iv, 0.37 mg/kg, rutin, i.v., pure rutin 0.37 mg/kg, extract equivalent to 1.48 mg/kg of rutin, NCA, mean ± SD, n = 5, read-out: Vss
  Vd: 0.29 ± 0.053 L/kg
[6]; male, New Zealand White, rabbit, plasma, iv, 0.37 mg/kg, rutin, i.v., pure rutin 0.37 mg/kg, extract equivalent to 1.48 mg/kg of rutin, NCA, mean ± SD, n = 5, read-out: Vz
  Vd: 0.084 ± 0.028 L/kg
[6]; male, New Zealand White, rabbit, plasma, iv, 0.37 mg/kg, i.v., mean ± SEM, at last quantified time, read-out: rutin plasma level, lower end of quantified range
  concentration at 6 h: 105 ± 24 ng/mL
[6]; male, New Zealand White, rabbit, plasma, iv, rutin, i.v., pure rutin 0.37 mg/kg, extract equivalent to 1.48 mg/kg of rutin, NCA, mean ± SD, n = 5, read-out: t1/2 (terminal half-life) (converted)
  half-life: 0.79 ± 0.381 h
[6]; male, New Zealand White, rabbit, plasma, iv, rutin, i.v., pure rutin 0.37 mg/kg, extract equivalent to 1.48 mg/kg of rutin, NCA, mean ± SD, n = 5, read-out: λz (converted)
  k el: 0.000294 s⁻¹
[6]; [10]
  MRT: 3.63 ± 0.163 h
  clearance: 1.32 mL/min/kg
[6]; rutin in plasma, i.v., pure rutin 0.37 mg/kg, extract equivalent to 1.48 mg/kg of rutin, NCA, mean ± SD, n = 5
  Cp^0 (plasma concentration at zero time): 4960.02 ± 760.234 ng/mL
[6]; [11]
  AUC0–∞/dose: 12.90 ± 2.214 h/L/kg
  Cp^0/dose: 13.49 ± 2.068 L⁻¹ kg⁻¹

From paper PMC11510156, “Rutin and Physalis peruviana Extract: Population Pharmacokinetics in New Zealand Rabbits” (Pharmaceutics, 2024)
